Patent US12527773B2, “Flavi-block: a pan-flavivirus inhibitor” (Baden-Württemberg Stiftung GmbH, priority 2020, dated 2026)
Read-outs that look alike come from different tables or passages of the source.

Assays:
[1] = test system: ZIKA; assay: IC50 in established virological assays (Table 1), ZIKA; format: cell-based; conditions: Zika virus
[2] = test system: HCV; assay: IC50 in established virological assays (Table 1), HCV; format: cell-based, Hepatitis C virus
Procedure: (§1) In summary, a set of C10 derivatives (FIG. 12) was designed, synthesized and tested against HCV (which is considered as an established system to monitor drug effects against Flaviviridae) as well as DENV for comprehensive structure-activity relationship (SAR) analysis and target validation. IC50 and CC50 values for compound C10 were determined in established virological assays (Table 1). […] Further, said experiments underline the specificity of compound C10 for flaviviruses.

[3] = test system: DENV2; assay: RT-qPCR analysis of virus genomes, DENV2; format: cell-based; conditions: Dengue virus
Procedure: (§2) Vero cells were infected with DENV1-4 at an MOI of 1 for 2 h (post infection, p.i., (A)), after which virus was removed, and fresh maintenance medium containing 2% FCS together with the indicated concentration of C10 added. For co-treat condition (c.t., (B)), Vero cells were infected with DENV1-4 at an MOI of 1 in the presence of C10 for 2 h, followed by removal of the virus/C10 inoculums, and addition of fresh 2% fetal calf serum maintenance medium. […] Results represent the mean ±SD for duplicate wells from a single assay, representative of 2 independent experiments (cf. Tables 2A and 2B, infra, for pooled data).
(§3) Viral RNA was extracted using Isolate II RNA extraction kit (Bioline), and the absolute number of RNA copies determined by Taqman One Step RT-qPCR (Applied Biosystems) by extrapolation from a standard curve generated from in vitro—transcribed virus RNA.
(§4) It was decided to test the ability of C10 to inhibit the flaviviruses DENV1-4, KUNV and ZIKV, in addition to the paramyxovirus RSV, as a control.

[4] = test system: VP1 polyomavirus, LP1 HPV16, p24 HIV, BSA, GFP; assay: Specificity in the cross-linking assay: other capsid and non-related proteins; format: biochemical
Procedure: DSS was included as a positive control.
To study the specificity of C10, capsid proteins of other viruses (VP1 polyomavirus, LP1 HPV16, and p24 HIV) as well as non-related proteins (BSA, GFP), were incubated in the so-called cross-linking assay, with DSS or C10.

[5] = test system: DENV, ZIKV and KUNV; assay: Inhibition of flavivirus infection, summary bounds over DENV, ZIKV and KUNV; format: cell-based
Procedure: Vero cells were seeded into 24-well plates at a density of 2×10^5 cells/well and grown overnight in culture medium at 37° C. with 5% CO2 prior to infection with RSV, KUNV, ZIKV as indicated. BHK-21 cells were used for DENV1-4. The virus inoculum was removed and replaced with semisolid overlays of 0.8% aquacide II (Calbiochem) in DMEM+2% FBS, and the mixture was incubated at 37° C. with 5% CO2. After 3-5 days, the cells were fixed with neutral buffered formalin (Sigma) for 3 h at room temperature, rinsed with tap water, and stained with 1% crystal violet for 10 min. The stain was removed by rinsing the cells with tap water, and the viral plaques were counted visually. Dose-response curves were plotted from the plaque number versus the log of the concentration of the test compounds.
as §3, §4

[6] = test system: Huh7.5 cells; assay: Cytotoxicity in Huh7.5 cells (Cell Titer Glo, ATP); format: cell-based; conditions: Huh7.5, 24 h
Procedure: (§5) Cell viability was measured via the presence of ATP using the Promega Cell Titer Glo kit according to the manufacturer's instructions. Luminescence was detected using the Cytation3 by Biotek. […] (B) The same set of data as shown in FIG. 4A was plotted in a line graph. […] (D) As for FIG. 4A, Huh7.5 cells (1.0×10^4 cells/well) were seeded and incubated with C10 at the indicated concentrations for the indicated time points before measurement of viability using the Promega Cell Titer Glo kit.
(§6) Cell viability was measured by the presence of ATP using the Promega Cell Titer Glo Kit according to the manufacturer's instructions. Luminescence was detected using a Biotek Cytation3.
(§7) In the analysis of the data, all values were normalized against the DMSO control and presented in terms of percentage viability. The result is shown in the bar chart of FIG. 4A and the line chart of FIG. 4B; n≥6 with SEM.
(§8) For this purpose, Huh7.5 cells were seeded, treated and analyzed as described above. The CC50 values for C10, D1, D2, and D3 were calculated using GraphPad Prism6 software with a non-linear regression curve fitting algorithm, as shown in FIG. 4B. It should be noted that the tested compounds precipitate at concentrations above 160 μM in aqueous solutions. For this reason, higher concentrations cannot be tested.

[7] = Cytotoxicity in Huh7.5 cells (Cell Titer Glo, ATP); format: cell-based; conditions: human, Huh7.5 cells; Huh7.5, 24 h
Procedure: as §5, §6, §7, §8

[8] = test system: HCV; assay: Antiviral effect on HCV (virus release), Jc1-Luc-IRES in Huh7.5 cells
[9] = test system: DENV2; assay: Plaque assay of released virus, DENV2-infected Vero cells; format: cell-based; conditions: Dengue virus
Procedure: as §2
(§9) Vero and BHK-21 cells were maintained in DMEM media supplemented with 10% heat-inactivated FBS at 37° C. in a humidified incubator supplemented with 5% CO2; A549 cells were maintained in F-12K medium supplemented with 10% heat-inactivated Fetal Bovine Serum (FBS), 2 mM L-glutamine, 50 U/I penicillin, 0.05 mg/l streptomycin. […] Viral titer was subsequently determined by plaque assay (see below).
(§10) Vero cells were seeded into 24-well plates at a density of 2×10^5 cells/well and grown overnight in culture medium at 37° C. with 5% CO2 prior to infection with RSV, KUNV, ZIKV as indicated. […] The stain was removed by rinsing the cells with tap water, and the viral plaques were counted visually. […]

[10] = test system: ZIKV (Asian/Cook Islands/2014); assay: Plaque assay of released virus, ZIKV-infected Vero cells; format: cell-based; conditions: Zika virus
Procedure: as §2, with “ZIKV” for “DENV1-4”, “infection),” for “infection, p.i., (A)),”, “condition,” for “condition (c.t., (B)),”, “assay (cf. Table” for “assay, representative of”, “2” for “2 independent experiments (cf. Tables 2A and 2B, infra,”
as §9, with “streptomycin. DENV-1-4 strains, cell culture conditions and Gen-Bank accession numbers, as well as details of RSV strains and culture are known in the art.” for “streptomycin.”
as §10, with “indicated. BHK-21 cells were used for DENV1-4.” for “indicated.”

[11] = test system: MeV; assay: IC50 in established virological assays (Table 1), MeV; format: cell-based, Measles morbillivirus
Procedure: as §1

[12] = test system: ChikV; assay: IC50 in established virological assays (Table 1), ChikV; format: cell-based; conditions: Chikungunya virus

CCN1/C(=C\C=C\c2sc3cc(NC(C)=O)ccc3[n+]2CC)Sc2cc(NC(C)=O)ccc21.[I-] [C10, 6-acetamido-2-((1E,3E)-3-(6-acetamido-3-ethylbenzo[d]thiazol-2(3H)-ylidene)prop-1-en-1-yl)-3-ethylbenzo[d]thiazol-3-ium iodide]
IC50 [1]: 100 to 200 nM | IC50 [2]: 180 nM | IC50 ([2]; Hepatitis C virus): ~200 nM | EC50 ([3]; DENV2, read-out: EC50 from RT-qPCR analysis, DENV2, c.t.): 200 nM | EC50 ([3]; DENV2, read-out: EC50 from RT-qPCR analysis, DENV2, p.i.): 810 ± 480 nM | crosslinking effect on other capsid and non-related proteins [4]: either no effect on these proteins or it starts at concentrations around 200 times higher than the IC50 | EC50 ([5]; c.t., DENV, ZIKV and KUNV infection, read-out: EC50): < 500 nM | EC50 ([5]; c.t., read-out: EC50, infectious virus (plaque-forming units)): < 100 nM | EC50 ([5]; c.t., read-out: EC50, virus genomes by RT-qPCR): < 500 nM | EC50 ([5]; p.i., DENV, ZIKV and KUNV infection, read-out: EC50): < 2000 nM | EC50 ([5]; p.i., read-out: EC50, virus genomes by RT-qPCR): < 1700 nM | EC50 ([5]; read-out: EC50, infectious virus (plaque-forming units), p.i.): < 1500 nM | EC50 ([5]; read-out: EC50s for co-addition, all serotypes of DENV, ZIKV and WNV, plaque assays or qPCR): 10 to 100 nM | concentration up to which not toxic [6]: up to 40 μM | CC50 at 24 h [7]: 106000 nM | antiviral effect on release of infectious HCV ([8]; 24 h treatment): antiviral effects even at low concentrations | therapeutic index CC50/EC50 ([8]; HCV virus release, Huh7.5): approximately 590 | EC50 ([9]; read-out: EC50 from plaque assays, DENV2, c.t.): 40 nM | EC50 ([9]; read-out: EC50 from plaque assays, DENV2, p.i.): 1300 nM | EC50 ([10]; read-out: EC50 from plaque assays, ZIKV, c.t.): 90 nM | EC50 ([10]; read-out: EC50 from plaque assays, ZIKV, p.i.): 210 nM | activity against Measles morbillivirus (MeV) [11]: inactive or has only minor activity | IC50 ([11]; Measles morbillivirus, MeV): > 10000 nM | IC50 [12]: 5600 nM
